Earlier results, collected in US8952001B2, “Amino-heteroaryl derivatives as HCN blockers” (Merck Sharp & Dohme Corp., priority 2009, dated 2015).
Like-named read-outs stand apart in the source and are kept apart here.

Key:
[1] = tested on: ectopic discharges in A-beta and A-delta fibres; conditions: without causing conduction block
[2] = tested on: mechanical allodynia; conditions: intraperitoneal administration; Chung/von Frey
[3] = tested on: allodynia; conditions: rat CFA model of inflammatory pain
[4] = tested on: spontaneous pain; conditions: rat, mild thermal injury model
[5] = tested on: mechanical allodynia; conditions: local administration to the sciatic nerve 4 h after surgery in rats; Brennan model
[6] = tested on: nerve injured myelinated DRG

CCN(c1ccccc1)c1cc(=NC)n(C)c(C)n1.Cl [ZD 7288]
firing frequency of ectopic discharges [1]: reduced the firing frequency of ectopic discharges | mechanical allodynia [2]: dose-dependently reverses mechanical allodynia | allodynia [3]: suppresses allodynia | spontaneous pain [4]: blocks spontaneous pain | mechanical allodynia [5]: attenuates mechanical allodynia | spontaneous activity [6]: reduces spontaneous activity
